According to patent US9932637B2, “Genetic polymorphisms associated with cardiovascular disorders and drug response, methods of detection and uses thereof” (CELERA CORPORATION, priority 2003, dated 2018):
Several values for one entry are separate records, joined by “and”; a condition that tells them apart may be missing. Identical values can stand only once.

System: patients with prior myocardial infarction (CARE study)
Assay: CARE aligned analysis (prospective and case/control design, white males): association of genotypes with pravastatin efficacy (Tables 13, 15)
Type: in vivo, human
Conditions: for Pravastatin Patients n/total: WM
Method: The data presented in Table 8 based on an association of genotypes with pravastatin efficacy of the CARE samples were further analyzed and presented in Table 13. The further analysis was performed to align the data obtained from the analysis of the CARE samples, which was a prospective study, to the analysis of the WOSCOP samples, which was a case/control study. Table 13 also presents an analysis of the association of genotypes with pravastatin efficacy in the WOSCOPs samples. Relative to the analysis performed on the data presented in Table 8, there are two significant differences to determine if the SNP influenced pravastatin efficacy. Data obtained from the CARE samples were separated by study design into two groups, those in the prospective study design group and those in the case/control study design group. The original care study contained 16 protocol defined cardiovascular disease defined endpoints and 150 other phenotypes. […] The control groups used to compare the data were also divided into two groups, the “all possible” control group and the “cleaner” control group. […] Because the participants in the WOSCOPs trial were all white males, only data obtained from white males in the CARE study were analysed. Data from the “all possible” and “cleaner” controls were compared to data obtained from the cases in the prospective study design while only data from “cleaner” controls were compared to cases in the case/control study design. The data from the case/control cohorts were analysed using conditional logistic regression (as opposed to logistic regression used for the original anaylsis).
The anaylsis was refined as described for both Tables 13 and 14.

[1] = PRKCQ hCV15954277, CARE, Case/Control, F MI/SD/NF MI
[2] = PRKCQ hCV15954277, CARE, Prospective, F MI/SD/NF MI
[3] = SERPINA5 hCV9596963, CARE Case/Control, F MI/SD/NF MI
[4] = SN hCV25623265, CARE Case/Control, F MI/SD/NF MI
[5] = SN hCV25623265, CARE Prospective, F MI/SD/NF MI
[6] = TAP1 hCV549926, CARE Case/Control, F MI/SD/NF MI
[7] = TAP1 hCV549926, CARE Prospective, F MI/SD/NF MI
[8] = TIMP2 hCV25629888, CARE Case/Control, F MI/SD/NF MI
[9] = TNF hCV7514879, CARE Case/Control, F MI/SD/NF MI
[10] = TNF hCV7514879, CARE Prospective, F MI/SD/NF MI
[11] = VTN hCV2536595, CARE Case/Control, F MI/SD/NF MI
[12] = VTN hCV2536595, CARE Prospective, F MI/SD/NF MI

## CC[C@H](C)C(=O)O[C@H]1C[C@H](O)C=C2C=C[C@H](C)[C@H](CC[C@@H](O)C[C@@H](O)CC(=O)O)[C@H]21 [pravastatin]
PON1 hCV2548962, 2 rare alleles, CARE Prospective, Total CHD Events, All Possible controls, White Males
  n/total (%) cases, Pravastatin Patients, 2 Rare Alleles: 18/107 (16.8%)
PPOX hCV25922816, 0 Rare Alleles, CARE Prospective, F&NF MI, Cleaner controls
  Pravastatin Patients n/total: 116/721
PPOX hCV25922816, 1 Rare Allele, CARE Case/Control, F&NF MI, All Possible controls
  Pravastatin Patients n/total: 10/164
PPOX hCV25922816, 1 Rare Allele, CARE Prospective, F&NF MI, All Possible controls
  Pravastatin Patients n/total: 10/169
PPOX hCV25922816, 1 Rare Allele, CARE Prospective, F&NF MI, Cleaner controls
  Pravastatin Patients n/total: 10/113
PPOX hCV25922816, CARE Case/Control, F&NF MI
  2 Rare Alleles (%), Pravastatin Patients: (16.7%)
PPOX hCV25922816, CARE Prospective, F&NF MI
  2 Rare Alleles (%), Pravastatin Patients: (16.7%)
[1]
  2 rare alleles n/total (%), pravastatin patients: (11.2%)
  Pravastatin vs placebo odds ratio, 0 rare alleles: 0.58
  Pravastatin vs placebo odds ratio, 1 rare allele: 1.04
  Pravastatin vs placebo odds ratio, 2 rare alleles: 3.15
[2]
  Pravastatin vs placebo odds ratio, 0 rare alleles: 0.57 and 0.56
  Pravastatin vs placebo odds ratio, 1 rare allele: 1.08 and 0.85
  Pravastatin vs placebo odds ratio, 2 rare alleles: 3.38 and 2.80
SELL hCV16172571, CARE Case/Control, F&NF MI
  2 Rare Alleles (%), Pravastatin Patients: (14.3%)
SELL hCV16172571, CARE Prospective, F&NF MI
  2 Rare Alleles (%), Pravastatin Patients: (12.9%)
SELL hCV25474627, CARE Case/Control, F&NF MI
  2 Rare Alleles (%), Pravastatin Patients: (14.8%)
SELL hCV25474627, CARE Prospective, F&NF MI
  2 Rare Alleles (%), Pravastatin Patients: (13.3%)
SERPINA1 hCV25640504, CARE Case/Control, F&NF MI
  2 Rare Alleles (%), Pravastatin Patients: (8.6%)
SERPINA1 hCV25640504, CARE Prospective, F&NF MI
  2 Rare Alleles (%), Pravastatin Patients: (8.4%)
[3]
  2 Rare Alleles (%), Pravastatin Patients: (15.1%)
  2 Rare Alleles n/total, Pravastatin Patients: 21/139
  Pravastatin vs placebo odds ratio, 0 rare alleles: 0.89
  Pravastatin vs placebo odds ratio, 1 rare allele: 0.57
  Pravastatin vs placebo odds ratio, 2 rare alleles: 1.72
SERPINI2 hCV370782, CARE Case/Control, F&NF MI
  2 Rare Alleles (%), Pravastatin Patients: (16.2%)
SERPINI2 hCV370782, CARE Prospective, F&NF MI
  2 Rare Alleles (%), Pravastatin Patients: (15.8%)
[4]
  2 Rare Alleles (%), Pravastatin Patients: (7.5%)
  2 Rare Alleles n/total, Pravastatin Patients: 13/173
  Pravastatin vs placebo odds ratio, 0 rare alleles: 0.71
  Pravastatin vs placebo odds ratio, 1 rare allele: 1.02
  Pravastatin vs placebo odds ratio, 2 rare alleles: 0.30
[5]
  2 Rare Alleles (%), Pravastatin Patients: (7.5%)
  2 Rare Alleles n/total, Pravastatin Patients: 13/174
  Pravastatin vs placebo odds ratio, 0 rare alleles: 0.72
  Pravastatin vs placebo odds ratio, 1 rare allele: 0.98
  Pravastatin vs placebo odds ratio, 2 rare alleles: 0.31
[6]
  2 Rare Alleles n/total, Pravastatin Patients: 1/36 and 1/25
  Pravastatin vs placebo odds ratio, 0 rare alleles: 0.98 and 0.89
  Pravastatin vs placebo odds ratio, 1 rare allele: 0.61 and 0.56
  Pravastatin vs placebo odds ratio, 2 rare alleles: 0.08
[7]
  2 Rare Alleles n/total, Pravastatin Patients: 1/36 and 1/25
  Pravastatin vs placebo odds ratio, 0 rare alleles: 1.00 and 0.88
  Pravastatin vs placebo odds ratio, 1 rare allele: 0.60 and 0.55
  Pravastatin vs placebo odds ratio, 2 rare alleles: 0.09 and 0.08
[8]
  2 Rare Alleles (%), Pravastatin Patients: (29.2%)
  2 Rare Alleles n/total, Pravastatin Patients: 7/24
  Pravastatin vs placebo odds ratio, 0 rare alleles: 0.76
  Pravastatin vs placebo odds ratio, 1 rare allele: 0.56
  Pravastatin vs placebo odds ratio, 2 rare alleles: 6.81
[9]
  2 Rare Alleles (%), Pravastatin Patients: (8.8%)
  2 Rare Alleles n/total, Pravastatin Patients: 3/34
  Pravastatin vs placebo odds ratio, 0 rare alleles: 0.87
  Pravastatin vs placebo odds ratio, 1 rare allele: 0.52
  Pravastatin vs placebo odds ratio, 2 rare alleles: 0.14
TNF hCV7514879, CARE Case/Control, F&NF MI
  2 Rare Alleles (%), Pravastatin Patients: (8.8%)
[10]
  2 Rare Alleles (%), Pravastatin Patients: (8.6%)
  2 Rare Alleles n/total, Pravastatin Patients: 3/35
  Pravastatin vs placebo odds ratio, 0 rare alleles: 0.88
  Pravastatin vs placebo odds ratio, 1 rare allele: 0.50
  Pravastatin vs placebo odds ratio, 2 rare alleles: 0.12
TNF hCV7514879, CARE Prospective, F&NF MI
  2 Rare Alleles (%), Pravastatin Patients: (8.6%)
[11]
  2 Rare Alleles n/total, Pravastatin Patients: 21/260 and 21/168
  Pravastatin vs placebo odds ratio, 0 rare alleles: 1.51 and 1.37
  Pravastatin vs placebo odds ratio, 1 rare allele: 0.63 and 0.56
  Pravastatin vs placebo odds ratio, 2 rare alleles: 0.66 and 0.64
[12]
  2 Rare Alleles (%), Pravastatin Patients: (7.9%)
  2 Rare Alleles n/total, Pravastatin Patients: 21/266 and 21/174
  Pravastatin vs placebo odds ratio, 0 rare alleles: 1.54 and 1.31
  Pravastatin vs placebo odds ratio, 1 rare allele: 0.65 and 0.58
  Pravastatin vs placebo odds ratio, 2 rare alleles: 0.63 and 0.61
